Source: ChEMBL document CHEMBL1201862, “PubChem BioAssay data set” (2004)
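All cell lines were grown in 96-well plates and treated with compound for 48 hours. GI50 is the concentration that inhibits growth by half.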 Activity calls are given as the source filed them. Cut-off read from the data, not from the text of the source: active = GI50 up to about 1.1 µM and inactive = higher.

Experiments:
Assay in all cases: NCI-60 cell line screen, 48 h
COLO 205 = tested on: COLO 205
UACC-257 = tested on: UACC-257
U-251 = tested on: U-251
KM12 = tested on: KM12
SN12C = tested on: SN12C
HCT-15 = tested on: HCT-15
MDA-N = tested on: MDA-N
HOP-62 = tested on: HOP-62
HCT-116 = tested on: HCT-116
RPMI-8226 = tested on: RPMI-8226
HCC 2998 = tested on: HCC 2998
Malme-3M = tested on: Malme-3M
786-0 = tested on: 786-0
UO-31 = tested on: UO-31
EKVX = tested on: EKVX
CAKI-1 = tested on: CAKI-1
NCI-H226 = tested on: NCI-H226
SK-OV-3 = tested on: SK-OV-3
NCI-H522 = tested on: NCI-H522
LOX IMVI = tested on: LOX IMVI

SMILES	GI50 (COLO 205)	GI50 (UACC-257)	GI50 (U-251)	GI50 (KM12)	GI50 (SN12C)	GI50 (HCT-15) [µM]	GI50 (MDA-N)	GI50 (HOP-62)	GI50 (HCT-116)	GI50 (RPMI-8226)	GI50 (HCC 2998)	GI50 (Malme-3M)	GI50 (786-0)	GI50 (UO-31)	GI50 (EKVX)	GI50 (CAKI-1)	GI50 (NCI-H226)	GI50 (SK-OV-3)	GI50 (NCI-H522)	GI50 (LOX IMVI)
O=c1ccn(C2OC(CN(O)CCC3C(CO)OC(n4ccc(=O)[nH]c4=O)C3O)C(O)C2O)c(=O)[nH]1 (centres undefined)	> 100 µM (inactive)	> 100 µM (inactive)	> 100 µM (inactive)	> 100 µM (inactive)	> 100 µM (inactive)	> 100	> 100 µM (inactive)	> 100 µM (inactive)	> 100 µM (inactive)	> 100 µM (inactive)	> 100 µM (inactive)	> 100 µM (inactive)	> 100 µM (inactive)	> 100 µM (inactive)	> 100 µM (inactive)	> 100 µM (inactive)	> 100 µM (inactive)	> 100 µM (inactive)		
O=CC12CCCN1CCC2	> 100 µM (inactive)	> 100 µM (inactive)	> 100 µM (inactive)		> 100 µM (inactive)	> 100	> 100 µM (inactive)	> 100 µM (inactive)	> 100 µM (inactive)		> 100 µM (inactive)	> 100 µM (inactive)	> 100 µM (inactive)	> 100 µM (inactive)	> 100 µM (inactive)	> 100 µM (inactive)	76.4 µM (inactive)	> 100 µM (inactive)	> 100 µM (inactive)	> 100 µM (inactive)
Clc1ccc(C2=NCON=C2c2ccc(Cl)cc2)cc1	16.3 µM (inactive)	25.1 µM (inactive)	18.3 µM (inactive)	15.5 µM (inactive)	19 µM (inactive)	19.4	18.8 µM (inactive)	25.6 µM (inactive)	13.6 µM (inactive)	16.8 µM (inactive)	15.2 µM (inactive)	14.5 µM (inactive)	19.7 µM (inactive)	15.7 µM (inactive)	15.1 µM (inactive)	21.6 µM (inactive)	14.5 µM (inactive)	14.5 µM (inactive)		15.1 µM (inactive)
Cc1ccsc1/C=N/Nc1ncccn1	> 100 µM (inactive)	> 100 µM (inactive)	> 100 µM (inactive)	32.4 µM (inactive)	> 100 µM (inactive)	> 100	> 100 µM (inactive)	> 100 µM (inactive)	> 100 µM (inactive)	> 100 µM (inactive)	> 100 µM (inactive)	> 100 µM (inactive)	> 100 µM (inactive)	> 100 µM (inactive)	> 100 µM (inactive)	> 100 µM (inactive)	> 100 µM (inactive)	> 100 µM (inactive)		> 100 µM (inactive)
CC(=O)Nc1nc(C)c(S(=O)(=O)NC(=O)NC2NC(=O)NC2=O)s1 (centres undefined)	> 100 µM (inactive)	> 100 µM (inactive)	> 100 µM (inactive)	> 100 µM (inactive)	> 100 µM (inactive)	> 100	> 100 µM (inactive)	> 100 µM (inactive)	> 100 µM (inactive)	> 100 µM (inactive)	> 100 µM (inactive)	> 100 µM (inactive)	> 100 µM (inactive)	> 100 µM (inactive)	> 100 µM (inactive)	> 100 µM (inactive)		> 100 µM (inactive)	> 100 µM (inactive)	> 100 µM (inactive)
O=c1cc(-c2cccnc2)[nH]c2cc3c(cc12)OCO3	13.9 µM (inactive)	> 26.5 µM (inactive)	4.16 µM (inactive)	3.77 µM (inactive)	12.2 µM (inactive)	3.9	2.29 µM (inactive)	7.5 µM (inactive)	4.8 µM (inactive)	34 µM (inactive)	7.4 µM (inactive)	3.15 µM (inactive)	33.3 µM (inactive)	44.4 µM (inactive)			18.8 µM (inactive)	> 20.9 µM (inactive)		4.67 µM (inactive)
COC(=O)C1CCCCCCCCCCC12SCCCS2 (centres undefined)	18.6 µM (inactive)	17.5 µM (inactive)	17.3 µM (inactive)	18.1 µM (inactive)	16.9 µM (inactive)	26.7	30.8 µM (inactive)	21.2 µM (inactive)	16.3 µM (inactive)		20.9 µM (inactive)	20.3 µM (inactive)	14.6 µM (inactive)	18.9 µM (inactive)	19.4 µM (inactive)	26.3 µM (inactive)	18.6 µM (inactive)	49.5 µM (inactive)	17.2 µM (inactive)	18.3 µM (inactive)
N#CCCC(C=O)(CCC#N)CCC#N	> 100 µM (inactive)	> 100 µM (inactive)	> 100 µM (inactive)	> 100 µM (inactive)	> 100 µM (inactive)	> 100	> 100 µM (inactive)		> 100 µM (inactive)		> 100 µM (inactive)	> 100 µM (inactive)	> 100 µM (inactive)	> 100 µM (inactive)	> 100 µM (inactive)	> 100 µM (inactive)	> 100 µM (inactive)	> 100 µM (inactive)	> 100 µM (inactive)	> 100 µM (inactive)
O=S(=O)(c1ccccc1)[C@@H]1[C@H]2C=C[C@](CS)(O2)[C@H]1S(=O)(=O)c1ccccc1	79.3 µM (inactive)	> 100 µM (inactive)	> 100 µM (inactive)	> 100 µM (inactive)	38.2 µM (inactive)	15.2	82.8 µM (inactive)	> 100 µM (inactive)	13.3 µM (inactive)		> 100 µM (inactive)	> 100 µM (inactive)	30 µM (inactive)	> 100 µM (inactive)	78.9 µM (inactive)	31.6 µM (inactive)	> 100 µM (inactive)	> 100 µM (inactive)	14.7 µM (inactive)	44.6 µM (inactive)
CCCCCCCCC/C=C1\CC(CO)(COC(=O)C2CCCCC2)OC1=O (centres undefined)	13.6 µM (inactive)	27.4 µM (inactive)	19.7 µM (inactive)	20.4 µM (inactive)	16.9 µM (inactive)	23.2	16.7 µM (inactive)	13.4 µM (inactive)	23 µM (inactive)		23.7 µM (inactive)	15.2 µM (inactive)	14.9 µM (inactive)	20.1 µM (inactive)	17.9 µM (inactive)	22.9 µM (inactive)	23.3 µM (inactive)	25.8 µM (inactive)	18.3 µM (inactive)	11.8 µM (inactive)
C=CCOC(=O)C1C2OC3(C(C(=O)OC)=C2C(=O)OC)c2ccccc2CCC13 (centres undefined)	> 10 µM (inactive)	> 10 µM (inactive)	> 10 µM (inactive)	> 10 µM (inactive)	> 10 µM (inactive)	> 10	> 10 µM (inactive)	> 10 µM (inactive)	> 10 µM (inactive)	> 10 µM (inactive)	> 10 µM (inactive)	> 10 µM (inactive)	> 10 µM (inactive)	> 10 µM (inactive)	> 10 µM (inactive)	> 10 µM (inactive)	> 10 µM (inactive)	> 10 µM (inactive)		> 10 µM (inactive)
